Assay [1] concerns the target T1, Full length human recombinant HDAC8 protein (Homo sapiens, UniProt Q9BY41).
T1 construct: Full length human recombinant HDAC8 protein was expressed in baculoviral system; made in house
T1 sequence (Q9BY41 1-377): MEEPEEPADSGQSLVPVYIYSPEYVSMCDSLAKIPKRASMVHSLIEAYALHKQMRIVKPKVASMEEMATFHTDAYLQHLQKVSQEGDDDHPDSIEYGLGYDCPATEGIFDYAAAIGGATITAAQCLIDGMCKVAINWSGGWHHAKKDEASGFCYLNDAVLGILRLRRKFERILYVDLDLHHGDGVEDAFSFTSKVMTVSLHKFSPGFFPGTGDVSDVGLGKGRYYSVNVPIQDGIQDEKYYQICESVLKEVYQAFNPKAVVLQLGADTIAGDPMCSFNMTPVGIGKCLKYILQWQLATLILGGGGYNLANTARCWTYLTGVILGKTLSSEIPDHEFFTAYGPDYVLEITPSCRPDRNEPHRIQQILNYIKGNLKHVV
Kind of assay: In vitro histone deacetylase assay: enzymatic HDAC8 electrophoretic mobility shift assay. As to conditions: electrophoretic mobility shift assay; enzyme 1 nM; 2 μM fluorescently labeled peptide substrate RHKK(Ac)-NH2; 25° C.; 12 concentrations; read-out: HDAC8 IC50. It counts as biochemical. In general terms: A gel shift assay detects complexes by their altered migration in electrophoresis.

In assay [2] the target is T2, Recombinant N-terminal GST tag full-length human HDAC8 (Homo sapiens, UniProt Q9BY41).
T2 construct: Recombinant N-terminal GST tag full-length human HDAC8; purchased SignalChem H90-30G-1000; host or cells: baculovirus in Sf9 insect cells
T2 sequence (Q9BY41 1-377): T1 sequence (Q9BY41 1-377)
Kind of assay: HDAC8 probe binding assay, time resolved fluorescence (TRF) format. The following applies: compounds grouped by IC50 range (Table 2). Summed up:
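IC50 values come from four-parameter logistic fits of percent inhibition, scaled between DMSO (high) and no-enzyme (low) controls. Time-resolved fluorescence (ex 340, em 485/535 nm) was read after 16 h at room temperature. Enzyme was Sf9-expressed full-length human HDAC8 with an N-terminal GST tag, in a probe-binding format.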

For orientation: IC50 means the midpoint of a concentration-inhibition curve. As to `O=C(NO)c1ccc2c(c1)N(Cc1ccc(-n3cccn3)cc1)C(=O)CO2` [Compound I-224, 4-(4-(1H-pyrazol-1-yl)benzyl)-N-hydroxy-3-oxo-3,4-dihydro-2H-benzo[b][1,4]oxazine-6-carboxamide], the IC50 in assay [1] is under 25 nM; in assay [2], at most 25 nM.

Consider `COc1ccc(CN2C(=O)COc3ccc(C(=O)NO)cc32)c(Cl)c1` [Compound I-242, 4-(2-chloro-4-methoxybenzyl)-N-hydroxy-3-oxo-3,4-dihydro-2H-benzo[b][1,4]oxazine-6-carboxamide], for which the IC50 in assay [1] was under 25 nM; in assay [2] it was at most 25 nM.

In the case of `COc1ccc(CN2C(=O)COc3ccc(C(=O)NO)cc32)cc1Cl` [Compound I-243, 4-(3-chloro-4-methoxybenzyl)-N-hydroxy-3-oxo-3,4-dihydro-2H-benzo[b][1,4]oxazine-6-carboxamide], the IC50 in assay [1] was under 25 nM; in assay [2], at most 25 nM.

Turning to `COc1ccc(CN2C(=O)COc3ccc(C(=O)NO)cc32)cc1C` [Compound I-244, N-hydroxy-4-(4-methoxy-3-methylbenzyl)-3-oxo-3,4-dihydro-2H-benzo[b][1,4]oxazine-6-carboxamide], the IC50 in assay [1] is under 25 nM; in assay [2], 25 to 100 nM.

As to `COc1ccc(CN2C(=O)COc3ccc(C(=O)NO)cc32)cc1F` [Compound I-245, 4-(3-fluoro-4-methoxybenzyl)-N-hydroxy-3-oxo-3,4-dihydro-2H-benzo[b][1,4]oxazine-6-carboxamide], the IC50 was under 25 nM in assay [1] and at most 25 nM in assay [2].

As to `COc1ccc(CN2C(=O)COc3ccc(C(=O)NO)cc32)cc1C(F)(F)F` [Compound I-246, N-hydroxy-4-(4-methoxy-3-(trifluoromethyl)benzyl)-3-oxo-3,4-dihydro-2H-benzo[b][1,4]oxazine-6-carboxamide], the IC50 is under 25 nM in assay [1] and at most 25 nM in assay [2].

Take `COc1ccc(CN2C(=O)COc3ccc(C(=O)NO)cc32)c(F)c1F` [Compound I-247, 4-(2,3-difluoro-4-methoxybenzyl)-N-hydroxy-3-oxo-3,4-dihydro-2H-benzo[b][1,4]oxazine-6-carboxamide]: the IC50 is under 25 nM in assay [1] and at most 25 nM in assay [2].

Take `COc1cc(F)c(CN2C(=O)COc3ccc(C(=O)NO)cc32)c(F)c1` [Compound I-248, 4-(2,6-difluoro-4-methoxybenzyl)-N-hydroxy-3-oxo-3,4-dihydro-2H-benzo[b][1,4]oxazine-6-carboxamide]: the IC50 in assay [1] was under 25 nM; in assay [2], at most 25 nM.

On to `COc1ccc(CN2C(=O)COc3ccc(C(=O)NO)cc32)c(C(F)(F)F)c1` [Compound I-249, N-hydroxy-4-(4-methoxy-2-(trifluoromethyl)benzyl)-3-oxo-3,4-dihydro-2H-benzo[b][1,4]oxazine-6-carboxamide], for which the IC50 lay within 100 to 1000 nM in assay [1] and 25 to 100 nM in assay [2].

Regarding `CCOc1c(F)cc(CN2C(=O)COc3ccc(C(=O)NO)cc32)cc1F` [Compound I-250, 4-(4-ethoxy-3,5-difluorobenzyl)-N-hydroxy-3-oxo-3,4-dihydro-2H-benzo[b][1,4]oxazine-6-carboxamide], the IC50 in assay [1] and in assay [2] was 25 to 100 nM each time.

Take `O=C(NO)c1ccc2c(c1)N(Cc1ccc(-c3ccccc3)cc1)C(=O)CO2` [Compound I-251, 4-([1,1′-biphenyl]-4-ylmethyl)-N-hydroxy-3-oxo-3,4-dihydro-2H-benzo[b][1,4]oxazine-6-carboxamide]: the values for the IC50 in assay [1] and in assay [2] were under 25 nM and at most 25 nM, respectively.

Regarding `O=C(NO)c1ccc2c(c1)N(Cc1cc(Cl)ccc1Cl)C(=O)CO2` [Compound I-252, 4-(2,5-dichlorobenzyl)-N-hydroxy-3-oxo-3,4-dihydro-2H-benzo[b][1,4]oxazine-6-carboxamide], the results for the IC50 in assay [1] and in assay [2] were under 25 nM and at most 25 nM, respectively.

In the case of `O=C(NO)c1ccc2c(c1)N(Cc1c(Cl)cccc1Cl)C(=O)CO2` [Compound I-253, 4-(2,6-dichlorobenzyl)-N-hydroxy-3-oxo-3,4-dihydro-2H-benzo[b][1,4]oxazine-6-carboxamide], the IC50 in assay [1] and in assay [2] was 25 to 100 nM each time.

As for `O=C(NO)c1ccc2c(c1)N(Cc1cccc(Cl)c1Cl)C(=O)CO2` [Compound I-254, 4-(2,3-dichlorobenzyl)-N-hydroxy-3-oxo-3,4-dihydro-2H-benzo[b][1,4]oxazine-6-carboxamide], the IC50 was under 25 nM in assay [1] and at most 25 nM in assay [2].

For `O=C(NO)c1ccc2c(c1)N(Cc1nc(-c3ccccc3)sc1Cl)C(=O)CO2` [Compound I-255, 4-((5-chloro-2-phenylthiazol-4-yl)methyl)-N-hydroxy-3-oxo-3,4-dihydro-2H-benzo[b][1,4]oxazine-6-carboxamide], the IC50 was 25 to 100 nM in assay [1] and at most 25 nM in assay [2].

`O=C(NO)c1ccc2c(c1)N(Cc1ccc(Cl)cc1Cl)C(=O)CO2` [Compound I-256, 4-(2,4-dichlorobenzyl)-N-hydroxy-3-oxo-3,4-dihydro-2H-benzo[b][1,4]oxazine-6-carboxamide]: the IC50 is under 25 nM in assay [1] and at most 25 nM in assay [2].

With `O=C(NO)c1ccc2c(c1)N(Cc1ccc(Cl)c(Cl)c1)C(=O)CO2` [Compound I-258, 4-(3,4-dichlorobenzyl)-N-hydroxy-3-oxo-3,4-dihydro-2H-benzo[b][1,4]oxazine-6-carboxamide], the half-maximal inhibitory concentration (IC50) in assay [1] was under 25 nM; in assay [2] it was at most 25 nM.

For the compound `O=C(NO)c1ccc2c(c1)N(Cc1cc(C(F)(F)F)ccc1Cl)C(=O)CO2` [Compound I-259, 4-(2-chloro-5-(trifluoromethyl)benzyl)-N-hydroxy-3-oxo-3,4-dihydro-2H-benzo[b][1,4]oxazine-6-carboxamide], the IC50 in assay [1] was under 25 nM; in assay [2], at most 25 nM.

In the case of `O=C(NO)c1ccc2c(c1)N(Cc1cccc(SC(F)(F)F)c1)C(=O)CO2` [Compound I-263, N-hydroxy-3-oxo-4-(3-((trifluoromethyl)thio)benzyl)-3,4-dihydro-2H-benzo[b][1,4]oxazine-6-carboxamide], the IC50 in assay [1] is under 25 nM; in assay [2], at most 25 nM.

Regarding `O=C(NO)c1ccc2c(c1)N(Cc1ccc(SC(F)(F)F)cc1)C(=O)CO2` [Compound I-264, N-hydroxy-3-oxo-4-(4-((trifluoromethyl)thio)benzyl)-3,4-dihydro-2H-benzo[b][1,4]oxazine-6-carboxamide], the IC50 in assay [1] was under 25 nM; in assay [2], at most 25 nM.

For `O=C(NO)c1ccc2c(c1)N(Cc1cccc(C(F)(F)F)c1F)C(=O)CO2` [Compound I-265, 4-(2-fluoro-3-(trifluoromethyl)benzyl)-N-hydroxy-3-oxo-3,4-dihydro-2H-benzo[b][1,4]oxazine-6-carboxamide], the IC50 in assay [1] and in assay [2] was 25 to 100 nM each time.

As for `O=C(NO)c1ccc2c(c1)N(Cc1ccc(F)c(C(F)(F)F)c1)C(=O)CO2` [Compound I-267, 4-(4-fluoro-3-(trifluoromethyl)benzyl)-N-hydroxy-3-oxo-3,4-dihydro-2H-benzo[b][1,4]oxazine-6-carboxamide], the IC50 in assay [1] and in assay [2] was 25 to 100 nM throughout.

Consider `O=C(NO)c1ccc2c(c1)N(Cc1cc(F)ccc1C(F)(F)F)C(=O)CO2` [Compound I-268, 4-(5-fluoro-2-(trifluoromethyl)benzyl)-N-hydroxy-3-oxo-3,4-dihydro-2H-benzo[b][1,4]oxazine-6-carboxamide], for which the IC50 in assay [1] and in assay [2] was 25 to 100 nM throughout.

As for `O=C(NO)c1ccc2c(c1)N(Cc1ccc(F)cc1Cl)C(=O)CO2` [Compound I-270, 4-(2-chloro-4-fluorobenzyl)-N-hydroxy-3-oxo-3,4-dihydro-2H-benzo[b][1,4]oxazine-6-carboxamide], the values for the IC50 in assay [1] and in assay [2] were under 25 nM and at most 25 nM, respectively.

Turning to `O=C(NO)c1ccc2c(c1)N(Cc1csc(-c3ccccc3)n1)C(=O)CO2` [Compound I-271, N-hydroxy-3-oxo-4-((2-phenylthiazol-4-yl)methyl)-3,4-dihydro-2H-benzo[b][1,4]oxazine-6-carboxamide], the IC50 in assay [1] and in assay [2] was 25 to 100 nM each time.

In the case of `O=C(NO)c1ccc2c(c1)N(Cc1nc3cc(Cl)ccc3o1)C(=O)CO2` [Compound I-272, 4-((5-chlorobenzo[d]oxazol-2-yl)methyl)-N-hydroxy-3-oxo-3,4-dihydro-2H-benzo[b][1,4]oxazine-6-carboxamide], the IC50 in assay [1] was under 25 nM; in assay [2], at most 25 nM.

Regarding `O=C(NO)c1ccc2c(c1)N(Cc1c(F)cccc1Cl)C(=O)CO2` [Compound I-273, 4-(2-chloro-6-fluorobenzyl)-N-hydroxy-3-oxo-3,4-dihydro-2H-benzo[b][1,4]oxazine-6-carboxamide], the IC50 in assay [1] and in assay [2] was 25 to 100 nM each time.

For the compound `O=C(NO)c1ccc2c(c1)N(Cc1ccc(C(F)(F)F)cc1F)C(=O)CO2` [Compound I-274, 4-(2-fluoro-4-(trifluoromethyl)benzyl)-N-hydroxy-3-oxo-3,4-dihydro-2H-benzo[b][1,4]oxazine-6-carboxamide], the IC50 in assay [1] was under 25 nM; in assay [2] it was at most 25 nM.
